Source: the NIST ThermoML archive (doi:10.1016/j.jct.2017.09.022)

Assay: molar heat capacity at constant pressure
Details: 101.33 kPa, Crystal, Small (less than 1 g) adiabatic calorimetry

C[C@@H](O)[C@H](N)C(=O)O [L-threonine]
Details	molar heat capacity at constant pressure [J/K/mol]
5 K	0.06402
7.37 K	0.2004
7.65 K	0.2303
8.44 K	0.3068
9.19 K	0.3958
9.43 K	0.4407
9.67 K	0.4739
9.9 K	0.4922
10 K	0.5155
10.18 K	0.5729
10.51 K	0.6643
10.84 K	0.7242
11.17 K	0.8156
11.5 K	0.9129
11.83 K	0.9969
12.17 K	1.113
12.51 K	1.243
12.84 K	1.353
13.18 K	1.481
13.53 K	1.619
13.87 K	1.76
14.22 K	1.913
14.57 K	2.065
14.92 K	2.237
15 K	2.278
15.27 K	2.377
15.62 K	2.567
15.97 K	2.765
16.32 K	2.985
16.68 K	3.152
17.04 K	3.354
17.4 K	3.602
17.76 K	3.807
18.11 K	4.063
18.48 K	4.285
18.83 K	4.521
19.2 K	4.803
19.56 K	5.051
19.93 K	5.331
20 K	5.346
20.52 K	5.738
21.27 K	6.302
22.01 K	6.89
22.77 K	7.515
23.52 K	8.157
24.28 K	8.822
25 K	9.478
25.04 K	9.545
25.8 K	10.28
26.57 K	10.94
27.34 K	11.62
28.11 K	12.31
28.88 K	13.09
29.66 K	13.84
30 K	14.22
30.44 K	14.63
31.22 K	15.38
32.01 K	16.18
32.79 K	16.94
33.58 K	17.68
34.37 K	18.37
35 K	19.04
35.15 K	19.16
35.94 K	19.87
36.73 K	20.63
37.52 K	21.36
38.32 K	22.06
39.11 K	22.79
39.9 K	23.46
40 K	23.61
40.69 K	24.2
41.48 K	24.95
42.28 K	25.65
43.08 K	26.38
43.88 K	27.09
44.68 K	27.83
45 K	28.02
45.48 K	28.52
46.27 K	29.22
47.07 K	29.92
47.87 K	30.56
48.67 K	31.17
49.47 K	31.85
50 K	32.34
50.27 K	32.5
51.07 K	33.12
51.88 K	33.83
52.68 K	34.53
53.48 K	35.28
54.29 K	36.14
55.09 K	36.92
55.9 K	37.74
56.7 K	38.35
57.51 K	38.9
58.32 K	39.21
59.12 K	39.75
59.93 K	40.38
60 K	40.57
60.74 K	41.01
61.55 K	41.64
62.35 K	42.25
63.15 K	42.88
